What was measured:
[1] = system: rat; details: Acute oral toxicity, wistar, [Not Specified], dose end: 7 day, group: systemic, systemic / clinical chemistry / calcium / calcium + systemic / urinalysis / calcium / calcium
[2] = system: rat; details: Subchronic oral toxicity in rodents, sprague dawley, Gavage/Intubation, dose end: 13 week, group: systemic
[3] = system: rat; details: Prenatal developmental toxicity study, sprague dawley, Oral, Gavage/Intubation, dose end: 15 GD, group: maternal
[4] = system: rat; details: Multigenerational reproductive toxicity study, sprague dawley, Oral, Gavage/Intubation, dose end: 2 generation
[5] = system: rat; details: Subchronic oral toxicity in rodents, Charles River CD, Feed, dose end: 90 day, group: systemic
[6] = system: rat; details: Combined chronic toxicity/carcinogenicity; other; Oral; Feed; dose end: 2 year; group: systemic; systemic / clinical chemistry / peroxisomal beta-oxidation analysis / peroxisomal beta-oxidation analysis + systemic / organ weight / liver…
[7] = system: rat; details: Combined chronic toxicity/carcinogenicity; sprague dawley; Oral; Feed; dose end: 104 week; group: systemic; systemic / clinical chemistry / alkaline phosphatase (alp/alk) / alkaline phosphatase (alp/alk) + systemic / clinical chemistry / aspartate …
[8] = system: rabbit; details: Prenatal developmental toxicity study, new zealand white, Oral, Gavage/Intubation, dose end: 18 GD
[9] = systemic / organ weight / liver / absolute + systemic / organ weight / liver / relative to body weight + systemic / in life observation / …
[10] = systemic / in life observation / body weight / body weight + systemic / in life observation / clinical signs / alopecia + systemic / in life…
[11] = group: offspring, developmental / offspring survival late / lactation index / lactation index + developmental / offspring survival late / [other] / [other] + …
[12] = group: parental, systemic / in life observation / body weight / body weight + systemic / in life observation / body weight / body weight gain + systemic / in…
[13] = group: parental, systemic / organ weight / kidney / relative to body weight + systemic / organ weight / liver / absolute + systemic / organ weight / liver / …
[14] = systemic / organ weight / liver / absolute + systemic / organ weight / liver / relative to body weight + systemic / pathology microscopic / …
[15] = group: developmental, developmental / developmental malformation / bone / full supernumerary
[16] = group: maternal, systemic / in life observation / body weight / body weight gain

SMILES: COc1ccc2c(c1)c(CC(=O)O)c(C)n2C(=O)c1ccc(Cl)cc1 [Indomethacin]
- LEL [1]: 20 mg/kg/day
- LOAEL [1]: > 20 mg/kg/day
- NEL [1]: < 20 mg/kg/day
- NOAEL [1]: ≥ 20 mg/kg/day

SMILES: CCCCCCCCOC(C)=O [Octyl acetate]
- NEL ([2]; systemic / in life observation / body weight / body weight + systemic / in life observation / food consumption / food consumption + systemic…): 100 mg/kg/day
- LOAEL [2, 9]: > 1000 mg/kg/day
- NOAEL [2, 9]: ≥ 1000 mg/kg/day
- LEL ([2]; systemic / organ weight / liver / relative to body weight): 500 mg/kg/day
- LOAEL [3, 10]: > 1000 mg/kg/day
- NEL [3, 10]: 100 mg/kg/day
- NOAEL [3, 10]: ≥ 1000 mg/kg/day
- LEL ([3]; systemic / in life observation / body weight / body weight + systemic / in life observation / food consumption / food consumption): 500 mg/kg/day

SMILES: O=C([O-])C(F)(F)C(F)(F)C(F)(F)C(F)(F)C(F)(F)C(F)(F)C(F)(F)F.[NH4+] [PFOA, ammonium salt]
- LEL [4, 11]: 30 mg/kg/day
- LOAEL [4, 11]: > 30 mg/kg/day
- NEL [4, 11]: 10 mg/kg/day
- NOAEL [4, 11]: ≥ 30 mg/kg/day
- LOAEL [4, 12]: > 30 mg/kg/day
- NOAEL [4, 12]: ≥ 30 mg/kg/day
- LEL [4, 13]: 1 mg/kg/day
- NEL [4, 13]: < 1 mg/kg/day
- NEL ([5]; systemic / clinical chemistry / alkaline phosphatase (alp/alk) / alkaline phosphatase (alp/alk) + systemic / clinical chemistry / urea …): 0.5 mg/kg/day
- LEL ([5]; systemic / organ weight / kidney / absolute): 1.5 mg/kg/day
- LOAEL [5, 14]: > 50 mg/kg/day
- NOAEL [5, 14]: ≥ 50 mg/kg/day
- LEL [6]: 15 mg/kg/day
- LOAEL [6]: > 15 mg/kg/day
- NEL [6]: < 15 mg/kg/day
- NOAEL [6]: ≥ 15 mg/kg/day
- LEL [7]: 1.3 mg/kg/day
- LOAEL [7]: > 14.2 mg/kg/day
- NEL [7]: < 1.3 mg/kg/day
- NOAEL [7]: ≥ 14.2 mg/kg/day
- LEL [8, 15]: 50 mg/kg/day
- LOAEL [8, 15]: > 50 mg/kg/day
- NEL [8, 15]: 5 mg/kg/day
- NOAEL [8, 15]: ≥ 50 mg/kg/day
- LEL [8, 16]: 50 mg/kg/day
- LOAEL [8, 16]: 50 mg/kg/day
- NEL [8, 16]: 5 mg/kg/day
- NOAEL [8, 16]: 5 mg/kg/day

— EPA's ToxRefDB 2
